What was measured:
[1] = Toxicity study in NCr nude mice; settings: LBH589 2.5 or 7.5 mg/kg, rosiglitazone 10 or 20 mg/kg, i.p. five days per week, three-week cycle
Experimental: (§1) A total of 39 mice were randomly assigned to 5 treatment groups with at least 7 animals in each group. Mice were treated with vehicle (10% DMSO), 2.5 mg/kg or 7.5 mg/kg of LBH589, 10 mg/kg, or 20 mg/kg of Rosiglitazone via i.p. injection five days per week. The animals were evaluated for changes in clinical signs (stooling, activity level, and body weight). Bodyweight was measured prior to dosing and mice were monitored regularly for any signs of distress after drug administration. All mice were humanely euthanized after 24 days.

[2] = system: luciferase-labeled, triple-negative MDA-MB-231 cells; assay: Orthotopic mammary fat pad xenograft, bioluminescent tumor burden; format: in vivo, mouse; settings: day 28; LBH589 2.5 mg/kg, rosiglitazone 10 mg/kg or both, i.p. five days per week for four weeks; control 9.9 ± 6.2
Experimental: Female NCr nude mice (CrTac:NCr-Foxn1nu) aged 7 weeks were purchased from InVivos, Singapore. […] Mice were acclimatized to laboratory conditions for a minimum of 3 days prior to study initiation. All surgical procedures were performed under strict aseptic conditions according to the protocol approved by the SingHealth Institutional Animal Care and Use Committee (IACUC). […] A 1-cm incision was made at the abdominal mammary fat pad area. […] The incision was closed with wound clips (Stoelting Co, USA). To relieve post-surgical pain and prevent dehydration following surgery, 1 ml of 2 mg/ml meloxicam (Troy Ilium, Australia), diluted in 0.9% saline (B. Braun, Germany) was administered subcutaneously at the right flank of mice after surgery. Mice were recovered on a heating pad until fully awake from anesthesia before being returned to cages. Tumor growth was screened by imaging from the ventral view using the Xenogen IVIS system (Caliper Life Sciences, CA, USA). […] Bioluminescent signals around the tumor sites were identified and quantified as total photon counts using Living Image 4.2 software (Xenogen). […] The bodyweight of mice was measured prior to drug administration. Tumor growth was monitored twice a week using the Xenogen IVIS system throughout the entire 28 days of treatment. […]

[3] = system: PPARγ; assay: Immunoprecipitation of FLAG-tagged PPARγ, acetyl-lysine immunoblot; format: cell-based, human; settings: MCF7 cells, 50 nM LBH589, first hour; overall FLAG-tagged PPARγ unchanged
Experimental: For detection of acetylation of PPARγ, immunoprecipitation with PPARγ was performed. Cells were seeded at […] density and transfected with FLAG-tagged PPARγ before treatment with LBH589. Cells were harvested and cell pellets were lysed in immunoprecipitation (IP) lysis buffer (pH 8). Two hundred and fifty micrograms of proteins were pre-cleared with magnetic G beads (Millipore, Bedford, MA) for 1 h before rotating with 1 μg of FLAG antibody or normal rabbit IgG overnight at 4 °C. Magnetic G beads were added to the mixture the next day and rotated for 1.5 h. Magnetic-enriched IP samples were washed four times in cold wash buffer (200 mM Tris [pH 8.0], 100 mM NaCl, 0.5% NP-40, 2 mM DTT, 0.5 mM PMSF, 1 mM sodium orthovanadate, 1 μg/ml leupeptin, and 1 μg/ml aprotinin) at 10 min intervals. Samples were then boiled in 5× SDS loading buffer and subjected to SDS-PAGE. Proteins were then transferred to PVDF membranes and detected for acetyl-lysine.

[4] = system: PPARγ; assay: PPRE-luciferase reporter assay (PPARγ activity); format: cell-based, human; settings: MCF7, T47D, MDA-MB-231 and BT549 cells; 0, 50, 100 nM LBH589, 16 h
Source text: We took advantage of the fact that downstream genes targeted by this transcription factor contain peroxisome proliferator response elements (PPRE), where it binds. […] To provide assurance that the enhanced bioluminescence is attributable to PPARγ receptor activation rather than some off-target consequence of pan-HDAC inhibition, we repeated the luciferase assays but modified the experiments to eliminate the contribution of PPARγ (Supplementary Results: Part S2).

[5] = Cellular IC50 of LBH589; format: cell-based
[6] = system: PPARγ; assay: PPARγ mRNA and protein expression (RT-PCR, western blot); format: cell-based, human; settings: MCF7 and MDA-MB-231, 50 nM LBH589, from the 3 h mark to 18 h
Experimental: Total RNA was isolated from cells using TRIZOL reagent (Invitrogen, Carlsbad, CA, USA), as described in the manufacturer’s instructions with a DNAse treatment step incorporated into the protocol. Each RT reaction contained 2.5 µg of total RNA, 1× RT buffer, 5 mM MgCl2, 425 µM each of dNTPs, 2 µM random hexamers, 0.35U/µl RNase inhibitor, and 1.1U/µl MultiScribe™ reverse transcriptase and made up to 10 µl with sterile water. The RT reaction was carried out at 37 °C for 1 h. Five microlitres of the 10 µl cDNA reaction volume were used in real-time quantitative PCR using ABI PRISM 7500 (Applied Biosystems, Foster City, CA, USA). Normalization was endogenous 18S. Fluorescence was measured with the Sequence Detection Systems 2.0 software. PCR was performed in multiplex (both target and endogenous control co-amplified in the same reaction) with distinct fluorescent dyes. Primers and probes for human 18S, human PPARγ, BIRC5, CyclinD1, VEGFA, and MnSOD were purchased from Applied Biosystems (Assays on Demand).

[7] = system: ERα; assay: ERα receptor expression (western blot); format: cell-based, human; settings: ER-positive cell lines MCF7 and T47D
[8] = system: untransformed human breast epithelial cell lines MCF10A and MCF12A; assay: PPARγ expression, activity and cell viability in normal breast epithelial cells; settings: 0, 50, 100 nM LBH589, 24 h
Experimental: Whole-cell lysates were prepared with RIPA lysis buffer containing 10 mM Tris-HCL pH7.4, 30 mM NaCl, 1 mM EDTA, 1% Nonidet P-40, supplemented with 1 mM sodium orthovanadate (Na3VO4), 1 µg/ml leupeptin, 1 µg/ml pepstatin A, 1 µg/ml aprotinin, and 1 mM PMSF before use. […] Thereafter, proteins were transferred onto nitrocellulose membranes, blocked for 1 h at room temperature with 5% non-fat milk, and incubated overnight at 4 °C with the primary antibody. After probing with a secondary antibody for 1 h at 25 °C, protein bands were detected by using the Supersignal West Pico Chemiluminescent substrate kit. β-actin antibody was used as a loading control.
The luciferase reporter construct used was pPPRE-tk-Luc, which contains three PPREs from the rat acyl-CoA oxidase promoter under the control of the Herpes simplex virus thymidine kinase promoter (kind gift from Dr. Ronald M. Evans, The Salk Institute for Biological Studies, San Diego, CA, USA). 3× PPRE promoter activities were assessed with a dual-luciferase assay kit. […] Ten microlitres of cell lysate were then added to 50 μl of the luciferase substrate solution, following which 50 μl of stop and glow buffer was added for Renilla reading. Bioluminescence generated was measured using a Sirius luminometer (Berthold, Munich, Germany). The luminescence readings obtained were normalized to the protein content of the corresponding cell lysate. […]

[9] = mouse, in vivo, ip, 7.5 mg/kg
Experimental: as §1

[10] = system: MDA-MB-231 CAM tumor; assay: Chick chorioallantoic membrane (CAM) tumor vascularization, ultrasound imaging; format: in vivo; settings: single treatments, 48 h
Experimental: On Embryonic Day 3, a sharp weighted tool was used to poke a hole at the apex of the eggshell, and 3 mL of albumin was removed using a 5 ml syringe and 18G needle in order to drop the chick chorioallantoic membrane (CAM). The sharp-weighted tool was then used to poke a hole in the middle of the egg before using curved scissors to cut a 1cm2 hole. The eggs were screened, and dead embryos were removed.
On Embryonic Day 7, MDA-MB-231 cells were prepared for inoculation onto the CAM. DMEM was aspirated, cells were washed with PBS before the addition of 1 ml of 2.5 g/l Trypsin/EDTA solution onto the culture dish. The cells were then removed into a 15 ml Falcon tube and centrifuged for 3 min at 1200 rpm, before the supernatant was removed. Matrigel was added to the cell pellet on ice to resuspend the pellet, before the addition of 2 × 10^6 cells in a 50 µl of Matrigel-cell mixture onto CAM. […]
On Embryonic Day 10, the Tegaderm membrane was removed and Aquasonic gel was added onto the cling wrap which was carefully placed over the CAM. […] Tumor volumes and percentage vasculature were calculated by the Vevo Lab 1.7.0 programme.
Twenty microliters of single or combination treatments of LBH589 and rosiglitazone were added onto a 3.5 mm diameter autoclaved filter paper placed next to the formed tumor on the CAM. […] Percentage changes were calculated based on before and after drug treatment.

SMILES | loss of original bodyweight [1] [%] | relative tumor burden (fold change in bioluminescent signal normalized to pre-treatment radiance levels) [2] [fold] | acetylated PPARγ [3] | PPRE-luciferase reporter activity [4] | IC50 [5] [nM] | intracellular PPARγ mRNA and protein [6] | ERα receptor expression [7] | PPARγ expression and activity [8] | clinical signs (weight gain, stooling) compared to lower dosage or placebo [9] | CAM tumor volume / tumor size compared to DMSO control [10] | changes in CAM vascular volumes compared to DMSO [10]
CN(CCOc1ccc(CC2SC(=O)NC2=O)cc1)c1ccccn1 (stereo not drawn) [rosiglitazone] | ≤ 10 | 5.3 ± 0.8 |  |  |  |  |  |  |  |  | 
Cc1[nH]c2ccccc2c1CCNCc1ccc(/C=C/C(=O)NO)cc1 [LBH589] |  | 5.8 ± 3.7 | marked initial accumulation | dose-dependently enhanced | 50 | steady and gradual rise | dose-dependently suppressed | did not upregulate PPARγ expression or augment its activity | less weight gain and softer stools | did not have any significant effects | No significant changes

Reference: article PMC8476547, “Epigenetic derepression converts PPARγ into a druggable target in triple-negative and endocrine-resistant breast cancers” (Cell Death Discovery, 2021)
